# Data: PubChem BioAssay (NCI)
#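 Grown in 96-well plates, cells were treated for 48 hours with each compound at five concentrations. Insufficient inhibition: endpoint recorded as highest concentration tested. GI50 is the concentration that inhibits growth by half. Definition used: TGI = concentration required for complete inhibition of growth.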
# Tests used:
# Test in all cases: NCI tumour cell line growth inhibition, 48 h
# 786-0 renal = test system: 786-0 renal
# A549 NSCLC = test system: A549 NSCLC
# ACHN renal = test system: ACHN renal
# BT-549 breast = test system: BT-549 breast
# CAKI-1 renal = test system: CAKI-1 renal
# COLO 205 colon = test system: COLO 205 colon
# DU-145 prostate = test system: DU-145 prostate
# EKVX NSCLC = test system: EKVX NSCLC
# HCC-2998 colon = test system: HCC-2998 colon
# HCT-116 colon = test system: HCT-116 colon
# HCT-15 colon = test system: HCT-15 colon
# HL-60(TB) leukemia = test system: HL-60(TB) leukemia
# HOP-62 NSCLC = test system: HOP-62 NSCLC
# HOP-92 NSCLC = test system: HOP-92 NSCLC
# HS 578T breast = test system: HS 578T breast
# IGROV1 ovarian = test system: IGROV1 ovarian
# K-562 leukemia = test system: K-562 leukemia
# KM12 colon = test system: KM12 colon
# LOX IMVI melanoma = test system: LOX IMVI melanoma
# M14 melanoma = test system: M14 melanoma
# MCF7 breast = test system: MCF7 breast
# MDA-MB-231 breast = test system: MDA-MB-231 breast
# MDA-MB-435 = test system: MDA-MB-435
# NCI-H23 lung = test system: NCI-H23 lung
# NCI-H460 lung = test system: NCI-H460 lung
# NCI-H522 lung = test system: NCI-H522 lung
# NCI/ADR-RES ovarian = test system: NCI/ADR-RES ovarian
# OVCAR-3 ovarian = test system: OVCAR-3 ovarian
# OVCAR-4 ovarian = test system: OVCAR-4 ovarian
# OVCAR-5 ovarian = test system: OVCAR-5 ovarian
# OVCAR-8 ovarian = test system: OVCAR-8 ovarian
# PC-3 prostate = test system: PC-3 prostate
# RPMI-8226 leukemia = test system: RPMI-8226 leukemia
# RXF 393 renal = test system: RXF 393 renal
# SF-268 CNS = test system: SF-268 CNS
# SF-295 CNS = test system: SF-295 CNS
# SF-539 CNS = test system: SF-539 CNS
# SK-MEL-2 melanoma = test system: SK-MEL-2 melanoma
# SK-MEL-28 melanoma = test system: SK-MEL-28 melanoma
# SK-MEL-5 melanoma = test system: SK-MEL-5 melanoma
# SK-OV-3 ovarian = test system: SK-OV-3 ovarian
# SN12C renal = test system: SN12C renal
# SNB-19 CNS = test system: SNB-19 CNS
# SR leukemia = test system: SR leukemia
# SW-620 colon = test system: SW-620 colon
# T-47D breast = test system: T-47D breast
# TK-10 renal = test system: TK-10 renal
# U251 CNS = test system: U251 CNS
# UACC-257 melanoma = test system: UACC-257 melanoma
# UACC-62 melanoma = test system: UACC-62 melanoma
# UO-31 renal = test system: UO-31 renal
structure (smiles),measurement,setting,value
Oc1ccc(Nc2nc3ccccc3c3occc23)cc1,GI50,786-0 renal,12.2 µM
same,TGI,786-0 renal,26.8 µM
same,GI50,A549 NSCLC,14.4 µM
same,TGI,A549 NSCLC,52.1 µM
same,GI50,ACHN renal,4.54 µM
same,TGI,ACHN renal,29.4 µM
same,GI50,BT-549 breast,6.72 µM
same,TGI,BT-549 breast,34.6 µM
same,GI50,CAKI-1 renal,12.1 µM
same,TGI,CAKI-1 renal,28.1 µM
same,GI50,COLO 205 colon,18.9 µM
same,TGI,COLO 205 colon,50.1 µM
same,GI50,DU-145 prostate,11.3 µM
same,TGI,DU-145 prostate,23.4 µM
same,GI50,EKVX NSCLC,14.5 µM
same,TGI,EKVX NSCLC,39.2 µM
same,GI50,HCC-2998 colon,11.4 µM
same,TGI,HCC-2998 colon,23.7 µM
same,GI50,HCT-116 colon,16.3 µM
same,TGI,HCT-116 colon,34.5 µM
same,GI50,HCT-15 colon,14.3 µM
same,TGI,HCT-15 colon,40.5 µM
same,GI50,HL-60(TB) leukemia,10.2 µM
same,TGI,HL-60(TB) leukemia,> 100 µM
same,GI50,HOP-62 NSCLC,16.9 µM
same,TGI,HOP-62 NSCLC,> 100 µM
same,GI50,HOP-92 NSCLC,13.9 µM
same,TGI,HOP-92 NSCLC,32 µM
same,GI50,HS 578T breast,16.5 µM
same,TGI,HS 578T breast,45.4 µM
same,GI50,IGROV1 ovarian,2.93 µM
same,TGI,IGROV1 ovarian,23.5 µM
same,GI50,K-562 leukemia,9.84 µM
same,TGI,K-562 leukemia,> 100 µM
same,GI50,KM12 colon,15.5 µM
same,TGI,KM12 colon,38.6 µM
same,GI50,LOX IMVI melanoma,2.21 µM
same,TGI,LOX IMVI melanoma,15.9 µM
same,GI50,M14 melanoma,14.2 µM
same,TGI,M14 melanoma,34.6 µM
same,GI50,MCF7 breast,11.5 µM
same,TGI,MCF7 breast,44.4 µM
same,GI50,MDA-MB-231 breast,5.34 µM
same,TGI,MDA-MB-231 breast,25.7 µM
same,GI50,MDA-MB-435,9.77 µM
same,TGI,MDA-MB-435,21.6 µM
same,GI50,NCI-H23 lung,12.4 µM
same,TGI,NCI-H23 lung,28.5 µM
same,GI50,NCI-H460 lung,12.6 µM
same,TGI,NCI-H460 lung,36.1 µM
same,GI50,NCI-H522 lung,9.03 µM
same,TGI,NCI-H522 lung,26.1 µM
same,GI50,NCI/ADR-RES ovarian,16.2 µM
same,TGI,NCI/ADR-RES ovarian,31.5 µM
same,GI50,OVCAR-3 ovarian,5.8 µM
same,TGI,OVCAR-3 ovarian,22.8 µM
same,GI50,OVCAR-4 ovarian,12.3 µM
same,TGI,OVCAR-4 ovarian,98.9 µM
same,GI50,OVCAR-5 ovarian,15.6 µM
same,TGI,OVCAR-5 ovarian,38.3 µM
same,GI50,OVCAR-8 ovarian,17.1 µM
same,TGI,OVCAR-8 ovarian,58.8 µM
same,GI50,PC-3 prostate,16.1 µM
same,TGI,PC-3 prostate,66.4 µM
same,GI50,RPMI-8226 leukemia,7.63 µM
same,TGI,RPMI-8226 leukemia,72.6 µM
same,GI50,RXF 393 renal,11.3 µM
same,TGI,RXF 393 renal,41.3 µM
same,GI50,SF-268 CNS,11.4 µM
same,TGI,SF-268 CNS,31.6 µM
same,GI50,SF-295 CNS,11 µM
same,TGI,SF-295 CNS,23.9 µM
same,GI50,SF-539 CNS,16.5 µM
same,TGI,SF-539 CNS,33.7 µM
same,GI50,SK-MEL-2 melanoma,18.2 µM
same,TGI,SK-MEL-2 melanoma,42.1 µM
same,GI50,SK-MEL-28 melanoma,17.6 µM
same,TGI,SK-MEL-28 melanoma,45.6 µM
same,GI50,SK-MEL-5 melanoma,8.15 µM
same,TGI,SK-MEL-5 melanoma,21.9 µM
same,GI50,SK-OV-3 ovarian,16.2 µM
same,TGI,SK-OV-3 ovarian,33.7 µM
same,GI50,SN12C renal,12.2 µM
same,TGI,SN12C renal,26.5 µM
same,GI50,SNB-19 CNS,17.2 µM
same,TGI,SNB-19 CNS,50.5 µM
same,GI50,SR leukemia,31.4 µM
same,TGI,SR leukemia,> 100 µM
same,GI50,SW-620 colon,19.7 µM
same,TGI,SW-620 colon,50.5 µM
same,GI50,T-47D breast,17 µM
same,TGI,T-47D breast,51.2 µM
same,GI50,TK-10 renal,13 µM
same,TGI,TK-10 renal,27.1 µM
same,GI50,U251 CNS,11.3 µM
same,TGI,U251 CNS,26.1 µM
same,GI50,UACC-257 melanoma,12.9 µM
same,TGI,UACC-257 melanoma,30.7 µM
same,GI50,UACC-62 melanoma,11.7 µM
same,TGI,UACC-62 melanoma,23.9 µM
same,GI50,UO-31 renal,10.1 µM
same,TGI,UO-31 renal,33.3 µM
